Measurements taken from patent publication US20070128217A1 (priority 2003, published 2007).

Key:
[1] = test system: antibodies in sera from SARS patients (sera 1a, 1b, 2, 6, 37, 62, London, SARS-yellow, SARS-green); assay type: binding, human; set-up: Binding of serum 6 to linear peptides of protein X1 of SARS-CoV Urbani / Binding of serum 37 to linear peptides of protein X1 of SARS-CoV Urbani / Binding of serum 6 to looped/cyclic peptide (PEPSCAN-ELISA) / Binding of serum 37 to looped/cyclic peptide (PEPSCAN-ELISA) / Binding of serum 37 to looped/cyclic peptides of protein X1 of SARS-CoV Urbani / Binding of serum 6 to linear peptides of protein X2 / Binding of serum 37 to linear peptides of protein X2 / Binding of serum 37 to looped/cyclic peptides of protein X2 of SARS-CoV Urbani / Binding of serum 6 to linear peptides of protein M of SARS-CoV Urbani / Binding of serum 37 to linear peptides of protein M of SARS-CoV Urbani / Binding of serum 6 to looped/cyclic peptides of protein M of SARS-CoV Urbani / Binding of serum 37 to looped/cyclic peptides of protein M of SARS-CoV Urbani / Binding of serum 6 to linear peptides of protein X3 of SARS-CoV Urbani / Binding of serum 37 to linear peptides of protein X3 of SARS-CoV Urbani / Binding of serum 37 to looped/cyclic peptides of protein X3 of SARS-CoV Urbani / Binding of serum 6 to linear peptides of protein X4 of SARS-CoV Urbani / Binding of serum 37 to linear peptides of protein X4 of SARS-CoV Urbani / Binding of serum 37 to looped/cyclic peptides of protein X4 of SARS-CoV Urbani / Binding of serum 6 to linear peptides of protein X5 of SARS-CoV Urbani / Binding of serum 37 to linear peptides of protein X5 of SARS-CoV Urbani / Binding of serum 37 to looped/cyclic peptides of protein X5 of SARS-CoV Urbani / Binding of serum 6 to linear peptides of protein N of SARS-CoV Urbani / Binding of serum 37 to linear peptides of protein N of SARS-CoV Urbani / Binding of serum 6 to linear peptide (PEPSCAN-ELISA) / Binding of serum 1a to looped/cyclic peptides of protein N of SARS-CoV Urbani / Binding of serum 1b to looped/cyclic peptides of protein N of SARS-CoV Urbani / Binding of serum 2 to looped/cyclic peptides of protein N of SARS-CoV Urbani / Binding of serum 6 to looped/cyclic peptides of protein N of SARS-CoV Urbani / Binding of serum 37 to looped/cyclic peptides of protein N of SARS-CoV Urbani / Binding of serum 62 to looped/cyclic peptides of protein N of SARS-CoV Urbani / Binding of serum London to looped/cyclic peptides of protein N of SARS-CoV Urbani / Binding of serum SARS-green to looped/cyclic peptides of protein N of SARS-CoV Urbani: unit not given here
[2] = test system: rabbit serum obtained by immunizing a rabbit with the SARS-CoV strain Frankfurt 1; assay type: binding; set-up: Binding of a rabbit serum to linear peptides / Binding of a rabbit serum to looped peptides / Rabbit serum linear peptides / Rabbit serum looped peptides / Binding of a rabbit serum to linear peptides of protein N of SARS-CoV Urbani (Rabbit serum linear peptides) / Binding of a rabbit serum to looped/cyclic peptides of protein N of SARS-CoV Urbani (Rabbit serum looped peptides): unit not given here
[3] = test system: control sera (pooled serum of ten healthy LUMC hospital workers; commercial negative donor pooled serum from the Dutch bloodbank); assay type: binding, human; set-up: Binding of Control serum LUMC to linear peptides / Binding of Control serum Blood-bank to linear peptides / Binding of Control serum LUMC to looped peptides / Binding of Control Serum Blood-Bank to Looped peptides / Binding of Control serum LUMC to linear peptides of the protein M of SARS-CoV Urbani / Binding of Control serum Blood-bank to linear peptides of the protein M of SARS-CoV Urbani / Binding of Control serum LUMC to looped peptides of the protein M of SARS-CoV Urbani / Binding of Control Serum Blood-Bank to Looped peptides of the protein M of SARS-CoV Urbani: unit not given here

CALGKVLPFHRWHTM
Binding of serum 1a to linear peptides of protein X5 of SARS-CoV Urbani [1]: 0.7 | Binding of serum 1a to looped/cyclic peptides of protein X5 of SARS-CoV Urbani [1]: 0.4 | Binding of serum 1b to linear peptides of protein X5 of SARS-CoV Urbani [1]: 0.5 | Binding of serum 1b to looped/cyclic peptides of protein X5 of SARS-CoV Urbani [1]: 0.2 | Binding of serum 2 to linear peptides of protein X5 of SARS-CoV Urbani [1]: 0.7 | Binding of serum 2 to looped/cyclic peptides of protein X5 of SARS-CoV Urbani [1]: 0.6 | Binding of serum 6 to linear peptides of protein X5 of SARS-CoV Urbani [1]: 0.7 | Binding of serum 6 to looped/cyclic peptides of protein X5 of SARS-CoV Urbani [1]: 0.4 | Binding of serum 37 to linear peptides of protein X5 of SARS-CoV Urbani [1]: 0.8 | Binding of serum 37 to looped/cyclic peptides of protein X5 of SARS-CoV Urbani [1]: 0.5 | Binding of serum 62 to linear peptides of protein X5 of SARS-CoV Urbani [1]: 0.7 | Binding of serum 62 to looped/cyclic peptides of protein X5 of SARS-CoV Urbani [1]: 0.3 | Binding of serum London to linear peptides of protein X5 of SARS-CoV Urbani [1]: 0.7 | Binding of serum London to looped/cyclic peptides of protein X5 of SARS-CoV Urbani [1]: 0.2 | Binding of serum SARS-green to linear peptides of protein X5 of SARS-CoV Urbani [1]: 0.7 | Binding of serum SARS-green to looped/cyclic peptides of protein X5 of SARS-CoV Urbani [1]: 0.4 | Binding of serum SARS-yellow to linear peptides of protein X5 of SARS-CoV Urbani [1]: 0.1 | Binding of serum SARS-yellow to looped/cyclic peptides of protein X5 of SARS-CoV Urbani [1]: 0.4 | Rabbit serum linear peptides [2]: 0.6 | Rabbit serum looped peptides [2]: 1.0 | Binding of Control Serum Blood-Bank to Looped peptides [3]: 0.4 | Binding of Control serum Blood-bank to linear peptides [3]: 0.8 | Binding of Control serum LUMC to linear peptides [3]: 0.7 | Binding of Control serum LUMC to looped peptides [3]: 0.6

INACRIIMRCWLCWK
Binding of serum 1a to looped/cyclic peptide (PEPSCAN-ELISA) [1]: 0.6 | Binding of serum 1b to looped/cyclic peptide (PEPSCAN-ELISA) [1]: 0.4 | Binding of serum 2 to looped/cyclic peptide (PEPSCAN-ELISA) [1]: 0.6 | Binding of serum 6 to looped/cyclic peptide (PEPSCAN-ELISA) [1]: 0.6 | Binding of serum 37 to looped/cyclic peptide (PEPSCAN-ELISA) [1]: 0.5 | Binding of serum 62 to looped/cyclic peptide (PEPSCAN-ELISA) [1]: 0.6 | Binding of serum London to looped/cyclic peptide (PEPSCAN-ELISA) [1]: 0.4 | Binding of serum SARS-green to looped/cyclic peptide (PEPSCAN-ELISA) [1]: 0.3 | Binding of serum SARS-yellow to looped/cyclic peptide (PEPSCAN-ELISA) [1]: 0.5 | Recognition of the peptide by sera of SARS-CoV infected individuals, and form (linear, looped/cyclic) in which it is recognized [1]: recognized in linear form | Recognition of the peptide by the rabbit serum [2]: recognized | Binding of Control Serum Blood-Bank to Looped peptides [3]: 0.7 | Binding of Control serum Blood-bank to linear peptides [3]: 0.9 | Binding of Control serum LUMC to linear peptides [3]: 0.4 | Binding of Control serum LUMC to looped peptides [3]: 0.6

TAFQHQNSKKTTKLV
Binding of serum 1a to linear peptides of protein X2 [1]: 0.7 | Binding of serum 1a to looped/cyclic peptides of protein X2 of SARS-CoV Urbani [1]: 0.3 | Binding of serum 1b to linear peptides of protein X2 [1]: 0.5 | Binding of serum 1b to looped/cyclic peptides of protein X2 of SARS-CoV Urbani [1]: 0.3 | Binding of serum 2 to linear peptides of protein X2 [1]: 0.5 | Binding of serum 2 to looped/cyclic peptides of protein X2 of SARS-CoV Urbani [1]: 0.2 | Binding of serum 6 to linear peptides of protein X2 [1]: 0.7 | Binding of serum 6 to looped/cyclic peptides of protein X2 of SARS-CoV Urbani [1]: 0.3 | Binding of serum 37 to linear peptides of protein X2 [1]: 0.7 | Binding of serum 37 to looped/cyclic peptides of protein X2 of SARS-CoV Urbani [1]: 0.2 | Binding of serum 62 to linear peptides of protein X2 [1]: 0.4 | Binding of serum 62 to looped/cyclic peptides of protein X2 of SARS-CoV Urbani [1]: 0.4 | Binding of serum London to linear peptides of protein X2 [1]: 0.4 | Binding of serum London to looped/cyclic peptides of protein X2 of SARS-CoV Urbani [1]: 0.2 | Binding of serum SARS-green to linear peptides of protein X2 [1]: 0.1 | Binding of serum SARS-green to looped/cyclic peptides of protein X2 of SARS-CoV Urbani [1]: 0.1 | Binding of serum SARS-yellow to linear peptides of protein X2 [1]: 0.8 | Binding of serum SARS-yellow to looped/cyclic peptides of protein X2 of SARS-CoV Urbani [1]: 0.3 | Recognition of the peptide by the rabbit serum [2]: recognized | Binding of Control Serum Blood-Bank to Looped peptides [3]: 0.4 | Binding of Control serum Blood-bank to linear peptides [3]: 0.6 | Binding of Control serum LUMC to linear peptides [3]: 0.9 | Binding of Control serum LUMC to looped peptides [3]: 0.4
